As a reminder, the remaining activity is the activity still measured, relative to the control. High values mean much activity left, low ones little activity left.

Molecules are shown by their SMILES. Marks after values point to notes of the source that are not given here. Some results are limits rather than exact numbers.

The target in one data set is 11β-HSD1 (Homo sapiens, UniProt P28845). Kind of data set: Human keratinocytes assay: 11β-HSD1 activity (cortisone to cortisol). In kind it is cell-based. To be noted: 48 h. Here is the method: Cell Culture: Primary human skin keratinocytes obtained from CelINTec advanced Cell Systems were maintained in CnT-PR medium at 37° C. in a humidified 5% CO2-air atmosphere. Cells were subcultured before reaching confluence.
Assessment of 11β-HSD1 activity: Human primary keratinocytes were pre-cultured in complete culture media (CnT-PR, CelINTec) to 90% of confluence. Subsequently cells were washed twice with PBS-buffer to remove remaining corticosteroids and media were exchanged to custom made hydrocortisone-free media.
Calculation: % remaining 11β-HSD1 activity=(cortisol-level with inhibitor/cortisol-level without inhibitor)*100%

Data set [1] has as its system Human skin from abdominal plastic surgery. The experiment in a line: Ex vivo: total dermal collagen after cortisone and cortisone/inhibitor treatment. In kind it is cell-based. To be noted: day 6; for Dermal collagen: untreated set to 100%. Here is the method: Human skin from abdominal plastic surgery was used. The skin samples were cut in pieces of ˜8×3 mm (ø×thickness) and cultured up to day 6 in an air-liquid interface in a perforated ring of stainless steel in contact with a culture medium (modified Williams' E medium), while renewing the culture medium on day 3. Six skin specimens were used for each test sample. Each test sample (4 μl) was applied topically on top of each piece after cleaning of the surface with a cotton pad, which was subsequently covered with a 6 ø mm delivery membrane, this procedure was repeated daily. After 6 days skin sections were stained with Picrosirius Red histochemical staining, that dyes collagen fibers in purple-red. The papillary dermis was selected for the analysis. The different colors of the pictures were separated by using a deconvolution matrix. After deconvolution only pink-reddish images are used. Within these images the evaluation of dermal collagen was performed by estimating both color intensity and distribution with IMAGE J (NIH) analysis software. Two slides of each skin sample were processed by image acquisition and related analysis (i.e. 12 images for each treatment).

The test system is the same in data set [2]. Kind of data set: Ex vivo: total dermal collagen III after UV-irradiation. It is filed as cell-based. The note with it: for Increase versus UV treatment (#2): day 6; for Dermal collagen III: daily UV 6 J/cm^2, day 6, non UV treated set to 100%. Here is the method:
Human skin from abdominal plastic surgery classified as “Intermediate” (ITA° angle=42°) was used. The skin samples were cut in pieces of approx. 8×3 mm (0×thickness) and cultured up to day 6 in an air-liquid interface in a perforated ring of stainless steel in contact with a culture medium (modified Williams' E medium, while renewing the culture medium on day 3. Six skin specimens were used for each test sample. Each test sample (4 μl) was topically applied on top of each piece after gentle cleaning of the surface with a cotton pad, which was subsequently covered with a 6 ø mm delivery membrane, this procedure was repeated daily. The samples were irradiated daily with 80% of the Biological effective dose for daylight (i.e. 6 J/cm^2) using an adopted BIO-SUN system (Vilber Lourmat). At day 6 twelve skin sections were immunostained with mouse monoclonal anti-collagen III antibody (Sigma cat #c7805). The papillary dermis was selected for the analysis. The evaluation was performed by estimating both color intensity and distribution with IMAGE J (NIH) analysis software. Two slides of each skin sample have been processed by image acquisition and related analysis (i.e. 12 images for each treatment).

Data set [3] in a line: Solubility in cosmetic oils from saturated mixtures (UPLC). The note with it: 7 days at room temperature (22° C.); for Solubility in cosmetic oils: Cetiol B: Cetiol B (dibutyl adipate); for Solubility in cosmetic oils: DUB DIS: DUB DIS (diisopropyl sebacate); for Solubility in cosmetic oils: Finsolv EB: Finsolv EB (ethylhexyl benzoate). It is filed as physicochemical. The method, then: H2O+0.02% TFA (A phase) and MeCN+0.02% TFA (B phase) were used as eluents, with a flow of 0.5 mL/min.
The solubility of selected compounds was tested in the cosmetic oils Cetiol B (INCI name: dibutyl adipate from BASF Personal Care), DUB DIS (INCI name: diisopropyl sebacate from Stearinerie Dubois) and Finsolv EB ((INCI name: ethylhexyl benzoate from Innospec Performance Chemicals).
Samples of about 1 mg of the compounds to be tested were exactly weighted and dissolved in 90% MeCN(aq) to provide 0.1% (1000 ppm) w/v stock solutions. Aliquots of the stock solutions were diluted with 90% MeCN(aq) to provide 10, 100 and 250 ppm diluted solutions, which were tested by UPLC.
For each compound to be tested about 20 mg material were weighted in three microcentrifuge tubes and to each tube about 150 mg of one cosmetic oil were added, as reported in Table 5 below.
After mixing on a Vortex mixer for 5 min, the respective samples were mixed on a waving platform shaker (20 cycles/min) for 7 days at room temperature (22° C.). After that time, the tubes were centrifuged for 5 min at 12000 rpm, 10 μL samples of the supernatant were diluted to 1.00 mL with MeOH, 100 μL of these solutions were diluted to 1.00 mL with 90% MeCN(aq) and subsequently analyzed by UPLC. The compound concentration in each solution was calculated using the respective calibration curve. From the compound concentration in the diluted solutions the concentrations of the respective parent mixtures was calculated accordingly.

The mark [4] stands for this setting: 10 μM in DMSO, cortisone/inhibitor treatment, topical daily.
Where [5] appears, read: 100 μM in DMSO, cortisone/inhibitor treatment, topical daily.
The mark [6] stands for this setting: 200 μM in DMSO, cortisone/inhibitor treatment, topical daily.

11β-HSD1, sequence (P28845 whole entry): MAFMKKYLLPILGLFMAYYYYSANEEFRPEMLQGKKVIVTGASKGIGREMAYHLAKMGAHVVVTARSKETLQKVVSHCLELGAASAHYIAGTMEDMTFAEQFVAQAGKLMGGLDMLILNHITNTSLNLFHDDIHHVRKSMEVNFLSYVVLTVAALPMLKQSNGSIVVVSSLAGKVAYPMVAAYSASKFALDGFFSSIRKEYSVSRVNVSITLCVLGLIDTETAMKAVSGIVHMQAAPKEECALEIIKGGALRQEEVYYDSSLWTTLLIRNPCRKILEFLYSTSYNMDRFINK

At 11β-HSD1, `Cc1ccc(-c2cccc(C(=O)N3CCCC(C)(C)C3)c2)cc1F` [II-h, (3,3-dimethylpiperidin-1-yl)(3′-fluoro-4′-methyl-[1,1′-biphenyl]-3-yl)methanone] gave a remaining activity at 40 pM of 74%, a remaining activity at 0.0001 µM of 45%, a remaining activity at 0.00032 µM of 24% and a remaining activity at 0.001 µM of 10%.

`Cc1ccc(-c2cccc(C(=O)N3CCC(C)CC3)c2)cn1` [II-a, (4-methylpiperidin-1-yl)(3-(6-methylpyridin-3-yl)phenyl)methanone]: the Dermal collagen turned out to be 94% in data set [1] (setting [4]), 108% in data set [1] (setting [5]) and 114% in data set [1] (setting [6]). For the same molecule, the entries for the “Increase versus cortisone (#2)” value in data set [1] (10 μM in DMSO), in data set [1] (100 μM in DMSO) and in data set [1] (200 μM in DMSO) were “+22%”, “+40%” and “+48%”, respectively. Also, the “Increase versus UV treatment (#2)” value in data set [2] (10 μM in DMSO) is “+5%”; in data set [2] (100 μM in DMSO) it was “+43%”. Further, the “Dermal collagen III” value in data set [2] (10 μM in DMSO) is 84%; in data set [2] (100 μM in DMSO), 114%. In data set [3], the “Solubility in cosmetic oils: Cetiol B” value is on record as no less than 13.2%^b. The “Solubility in cosmetic oils: DUB DIS” value in data set [3] is listed as no less than 10.6%^b. Besides, the “Solubility in cosmetic oils: Finsolv EB” value in data set [3] was no less than 10.2%^b.

For `Cc1ccc(-c2cccc(C(=O)N3CCCCCC3)c2)cc1F` [IV-a, azepan-1-yl(3′-fluoro-4′-methyl-[1,1′-biphenyl]-3-yl)methanone], at 11β-HSD1, the remaining activity at 0.001 µM stood at 74%, the remaining activity at 0.00316 µM was 45%, the remaining activity at 0.01 µM was 22% and the remaining activity at 0.03162 µM came out at 8%. The molecule also yielded a remaining activity at 0.1 µM at 11β-HSD1 of 2%. For the same molecule, the Dermal collagen in data set [1] (setting [4]) amounted to 96%. Also, in data set [1] (10 μM in DMSO), the “Increase versus cortisone (#2)” value was “+25%”. For the same molecule, the Dermal collagen in data set [1] (setting [5]) worked out at 97%. Also, the “Increase versus cortisone (#2)” value in data set [1] (100 μM in DMSO) is recorded as “+26%”. In data set [1] (setting [6]), the Dermal collagen is 86%. Besides, in data set [1] (200 μM in DMSO), the “Increase versus cortisone (#2)” value is recorded as “+12%”. Further, in data set [2] (10 μM in DMSO), the “Increase versus UV treatment (#2)” value was “+13%” and the “Dermal collagen III” value is on record as 90%. Besides, in data set [2] (100 μM in DMSO), the “Increase versus UV treatment (#2)” value was “+21%” and the “Dermal collagen III” value worked out at 97%.

Turning to `Cc1ccc(-c2cccc(C(=O)N3CC(C)OC(C)C3)c2)cc1F` (stereo not shown) [III-b, (2,6-dimethylmorpholino) (3′-fluoro-4′-methyl-[1,1′-biphenyl]-3-yl)methanone], in data set [3], the “Solubility in cosmetic oils: Cetiol B” value is on record as 10.0%, the “Solubility in cosmetic oils: DUB DIS” value came out at 4.3% and the “Solubility in cosmetic oils: Finsolv EB” value worked out at 2.6%.

For `CC1CCN(C(=O)c2cccc(-c3ccccc3Cl)c2)CC1` [II-e, (2′-chloro-[1,1′-biphenyl]-3-yl)(4-methylpiperidin-1-yl)methanone], on 11β-HSD1, the remaining activity at 0.001 µM was 85%, the remaining activity at 0.00316 µM amounted to 70%, the remaining activity at 0.01 µM is 50% and the remaining activity at 0.03162 µM worked out at 21%. Moreover, the remaining activity at 0.1 µM at 11β-HSD1 was found to be 4%.

Take `O=C(c1cccc(-c2ccccc2)c1)N1CCCCCC1` [IV-f, [1,1′-biphenyl]-3-yl(azepan-1-yl)methanone]: on 11β-HSD1, the remaining activity at 0.001 µM was determined as 83%, the remaining activity at 0.00316 µM was 73%, the remaining activity at 0.01 µM came to 52% and the remaining activity at 0.03162 µM amounted to 28%. For the same molecule, the remaining activity at 0.1 µM at 11β-HSD1 amounted to 10%. This molecule also displayed a Dermal collagen in data set [1] (setting [4]) of 103%. Also, the “Increase versus cortisone (#2)” value in data set [1] (10 μM in DMSO) was “+34%”. The molecule further yielded a Dermal collagen in data set [1] (setting [5]) of 103%. The “Increase versus cortisone (#2)” value in data set [1] (100 μM in DMSO) is “+34%”. Besides, the Dermal collagen in data set [1] (setting [6]) was determined as 93%. In addition, in data set [1] (200 μM in DMSO), the “Increase versus cortisone (#2)” value is reported as “+21%”. Moreover, in data set [2] (10 μM in DMSO), the “Increase versus UV treatment (#2)” value is listed as “+6%” and the “Dermal collagen III” value turned out to be 85%. In data set [2] (100 μM in DMSO), the “Increase versus UV treatment (#2)” value was “+33%” and the “Dermal collagen III” value was 106%. Further, in data set [3], the “Solubility in cosmetic oils: Cetiol B” value is no less than 10.6%^b, the “Solubility in cosmetic oils: DUB DIS” value is no less than 10.2%^b and the “Solubility in cosmetic oils: Finsolv EB” value is given as no less than 10.3%^b.

As for `C[C@]12CCC(=O)C=C1CC[C@@H]1[C@@H]2C(=O)C[C@@]2(C)[C@H]1CC[C@]2(O)C(=O)CO` [cortisone, reference compound], the Dermal collagen in data set [1] (cortisone alone 0.1 μM in DMSO) is given as 77%.

On 11β-HSD1, `Cc1ccc(-c2cccc(C(=O)N3CCCCCC3)c2)cc1` [IV-c, azepan-1-yl(4′-methyl-[1,1′-biphenyl]-3-yl)methanone] had a remaining activity at 0.001 µM of 70%, a remaining activity at 0.00316 µM of 42%, a remaining activity at 0.01 µM of 23% and a remaining activity at 0.03162 µM of 9%. Besides, the remaining activity at 0.1 µM on 11β-HSD1 was 3%. In addition, in data set [3], the “Solubility in cosmetic oils: Cetiol B” value was found to be 3.3%, the “Solubility in cosmetic oils: DUB DIS” value is reported as 2.6% and the “Solubility in cosmetic oils: Finsolv EB” value is reported as 4.0%.

With `CC1CCN(C(=O)c2cccc(-c3cccc(C(N)=O)c3)c2)CC1` [II-k, 3′-(4-methylpiperidine-1-carbonyl)-[1,1′-biphenyl]-3-carboxamide], in data set [3], the “Solubility in cosmetic oils: Cetiol B” value was 3.0%, the “Solubility in cosmetic oils: DUB DIS” value is 2.4% and the “Solubility in cosmetic oils: Finsolv EB” value amounted to 3.4%.

Consider `Cc1ccc(-c2cccc(C(=O)N3CCOC(C)(C)C3)c2)cc1F` [III-a, (2,2-dimethylmorpholino) (3′-fluoro-4′-methyl-[1,1′-biphenyl]-3-yl)methanone], for which, at 11β-HSD1, the remaining activity at 0.00032 µM is 70%, the remaining activity at 0.001 µM came out at 55%, the remaining activity at 0.00316 µM is 37% and the remaining activity at 0.01 µM was 11%. At 11β-HSD1, this molecule yielded a remaining activity at 0.03162 µM of 3% and a remaining activity at 0.1 µM of 0%.

The values above are taken from patent publication US10550097B2, “Selective 11-beta-hydroxysteroid dehydrogenase type 1 inhibitors” (DSM IP ASSETS B.V., priority 2015, dated 2020).
